{
  "source": "patent US20240334934A1",
  "about": "“FUNGICIDE MIXTURE” (priority 2021, published 2024)",
  "key": {"[1]": {"tested_on": "Gibberella zeae (Fusarium graminearum)", "assay": "microbe, parasite or virus in culture", "format": "cell-based", "conditions": "read-out: % Efficacy"}, "Botrytis cinerea": {"tested_on": "Botrytis cinerea", "assay": "Greenhouse test, tomato, preventative", "format": "in vivo", "conditions": "2 days preventative, EC50 formulation", "experimental": "Purified Cyclothiazomycin C (CtmC) was formulated as an EC50 formulation. The formulation was diluted in water at rates of 100 ppm and 50 ppm of CtmC. Plants were treated with 400 L/ha of the diluted product supplemented with an adjuvant to improve sticking and spreading, resulting in a treatment of 40 g/ha and 20 g/ha of CtmC, respectively.\nBotrytis cinerea tomato/preventative (Botrytis on tomato) 4-week old tomato plants cv. Roter Gnom are treated in a spray chamber with the formulated test compound diluted in water. The test plants are inoculated by spraying them with a spore suspension two days after application. The inoculated test plants are incubated at 20° C. and 95% rh in a greenhouse and the percentage leaf area covered by disease is assessed when an appropriate level of disease appears on untreated check plants (5-6 days after application)."}, "[2]": {"tested_on": "Cercospora kikuchii K6080", "assay": "Efficacy of purified CtmC alone in-vitro, 96 well plate, OD 620 nm", "format": "cell-based", "conditions": "CtmC 10 ppm", "experimental": "(§1) CtmC was dissolved in DMSO (Dimethylsulfoxid) to a final concentration of 1000 ppm to create a stock solution. A second dilutions of 1:10 was made in water+0.025% Tween 20. From this second dilution 10 μl are dispensed into a 96 well plate. To each well, 90 μl of medium (PDB—potato dextrose broth, plus 0.3% agar) with fungal spores are added and mixed, resulting in final CtmC concentrations of 10 ppm. All wells containing CtmC also contain DMSO (1%) and Tween 20 (0.0025%). In the following table 4 some of the species were tested using several distinct isolates (internal strain number indicated) to understand variability among different isolates of the same species sampled in different locations, producing different mycotoxins (genus Fusarium), or expressing various tolerances to fungicides of the SDHI (Succinate Dehydrogenase Inhibitor), SBI (Sterol Biosynthesis Inhibitors) and/or QoI (quinone outside inhibitors) classes (example: Zymoseptoria tritici). Different isolates had variable inoculum density and number of biological repicas, as indicated."}, "Cercospora sojina K5703": {"tested_on": "Cercospora sojina K5703", "assay": "Efficacy of purified CtmC alone in-vitro, 96 well plate, OD 620 nm", "format": "cell-based", "conditions": "CtmC 10 ppm", "experimental": "as §1"}, "[3]": {"tested_on": "Cochliobolus sativus K5817", "assay": "Efficacy of purified CtmC alone in-vitro, 96 well plate, OD 620 nm", "format": "cell-based", "conditions": "CtmC 10 ppm", "experimental": "as §1"}, "[4]": {"tested_on": "Corynespora cassiicola K5577", "assay": "Efficacy of purified CtmC alone in-vitro, 96 well plate, OD 620 nm", "format": "cell-based", "conditions": "CtmC 10 ppm", "experimental": "as §1"}, "Fusarium avenaceum K6940": {"tested_on": "Fusarium avenaceum K6940", "assay": "Efficacy of purified CtmC alone in-vitro, 96 well plate, OD 620 nm", "format": "cell-based", "conditions": "CtmC 10 ppm", "experimental": "as §1"}, "Fusarium poae K8039": {"tested_on": "Fusarium poae K8039", "assay": "Efficacy of purified CtmC alone in-vitro, 96 well plate, OD 620 nm", "format": "cell-based", "conditions": "CtmC 10 ppm", "experimental": "as §1"}, "[5]": {"tested_on": "Fusarium tricinctum K7452", "assay": "Efficacy of purified CtmC alone in-vitro, 96 well plate, OD 620 nm", "format": "cell-based", "conditions": "CtmC 10 ppm", "experimental": "as §1"}, "[6]": {"tested_on": "Fusarium tricinctum K7454", "assay": "Efficacy of purified CtmC alone in-vitro, 96 well plate, OD 620 nm", "format": "cell-based", "conditions": "CtmC 10 ppm", "experimental": "as §1"}, "[7]": {"tested_on": "Gibberella fujikuroi K5299", "assay": "Efficacy of purified CtmC alone in-vitro, 96 well plate, OD 620 nm", "format": "cell-based", "conditions": "CtmC 10 ppm", "experimental": "as §1"}, "Microdochium majus K7482": {"tested_on": "Microdochium majus K7482", "assay": "Efficacy of purified CtmC alone in-vitro, 96 well plate, OD 620 nm", "format": "cell-based", "conditions": "CtmC 10 ppm", "experimental": "as §1"}, "[8]": {"tested_on": "Monographella nivalis K7484", "assay": "Efficacy of purified CtmC alone in-vitro, 96 well plate, OD 620 nm", "format": "cell-based", "conditions": "CtmC 10 ppm", "experimental": "as §1"}, "[9]": {"tested_on": "Rhynchosporium secalis K5917", "assay": "Efficacy of purified CtmC alone in-vitro, 96 well plate, OD 620 nm", "format": "cell-based", "conditions": "CtmC 10 ppm", "experimental": "as §1"}, "Septoria glycines K5204": {"tested_on": "Septoria glycines K5204", "assay": "Efficacy of purified CtmC alone in-vitro, 96 well plate, OD 620 nm", "format": "cell-based", "conditions": "CtmC 10 ppm", "experimental": "as §1"}, "[10]": {"tested_on": "Ustilago segetum var. tritici K5349", "assay": "Efficacy of purified CtmC alone in-vitro, 96 well plate, OD 620 nm", "format": "cell-based", "conditions": "CtmC 10 ppm", "experimental": "as §1"}, "[11]": {"tested_on": "Venturia inaequalis K6222", "assay": "Efficacy of purified CtmC alone in-vitro, 96 well plate, OD 620 nm", "format": "cell-based", "conditions": "CtmC 10 ppm", "experimental": "as §1"}, "[12]": {"tested_on": "Zymoseptoria tritici K7953", "assay": "Efficacy of purified CtmC alone in-vitro, 96 well plate, OD 620 nm", "format": "cell-based", "conditions": "CtmC 10 ppm", "experimental": "as §1"}, "[13]": {"tested_on": "Pyrenophora tritici-repentis K6186", "assay": "Efficacy of purified CtmC alone in-vitro, 96 well plate, OD 620 nm", "format": "cell-based", "conditions": "CtmC 10 ppm, mycelium inoculum", "experimental": "as §1, with “To each well, 90 μl of medium (PDB—potato dextrose broth, plus 0.3% agar) with fungal spores are added and mixed, resulting in final CtmC concentrations of 10 ppm.” left out"}},
  "data": [
    {"smiles": "C=C1NC(=O)CNC(=O)[C@H](CCCCN)NC(=O)[C@@]2(C)NC(=O)/C(=C/C)NC(=O)[C@H]3CSC(=N3)[C@@H](CC(N)=O)CC(=O)c3ccc(nc3[C@@H](C)NC(=O)[C@@H]3CCCN3C1=O)-c1nc(cs1)C1=N[C@H](CS1)C(=O)NC(=C)c1nc(cs1)-c1nc(cs1)C1=N[C@@H](CS1)C(=O)N[C@@H](C(=O)O)CS2", "note": "[CtmC, cyclothiazomycin C]", "values": [
      {"measurement": "Emax at 20 ppm", "setting": "[1]", "result": 37, "unit": "%"},
      {"measurement": "efficacy 20 g/ha (%)", "setting": "Botrytis cinerea; 20 g/ha", "result": 30, "unit": "%"},
      {"measurement": "efficacy 40 g/ha (%)", "setting": "Botrytis cinerea; 40 g/ha", "result": 47, "unit": "%"},
      {"measurement": "efficacy (%)", "setting": "[2]", "result": 100, "unit": "%"},
      {"measurement": "optical density at 620 nm", "setting": "[2]; blank 0.044, untreated 0.215", "result": 0.043},
      {"measurement": "efficacy (%)", "setting": "Cercospora sojina K5703", "result": 54, "unit": "%"},
      {"measurement": "optical density at 620 nm", "setting": "Cercospora sojina K5703; blank 0.047, untreated 0.357", "result": 0.188},
      {"measurement": "efficacy (%)", "setting": "[3]", "result": 92, "unit": "%"},
      {"measurement": "optical density at 620 nm", "setting": "[3]; blank 0.044, untreated 0.701", "result": 0.095},
      {"measurement": "efficacy (%)", "setting": "[4]", "result": 86, "unit": "%"},
      {"measurement": "optical density at 620 nm", "setting": "[4]; blank 0.047, untreated 0.427", "result": 0.100},
      {"measurement": "efficacy (%)", "setting": "Fusarium avenaceum K6940", "result": 52, "unit": "%"},
      {"measurement": "optical density at 620 nm", "setting": "Fusarium avenaceum K6940; blank 0.054, untreated 0.410", "result": 0.225},
      {"measurement": "efficacy (%)", "setting": "Fusarium poae K8039", "result": 62, "unit": "%"},
      {"measurement": "optical density at 620 nm", "setting": "Fusarium poae K8039; blank 0.050, untreated 0.619", "result": 0.267},
      {"measurement": "efficacy (%)", "setting": "[5]", "result": 68, "unit": "%"},
      {"measurement": "optical density at 620 nm", "setting": "[5]; blank 0.052, untreated 0.498", "result": 0.197},
      {"measurement": "efficacy (%)", "setting": "[6]", "result": 65, "unit": "%"},
      {"measurement": "optical density at 620 nm", "setting": "[6]; blank 0.050, untreated 0.463", "result": 0.195},
      {"measurement": "efficacy (%)", "setting": "[7]", "result": 47, "unit": "%"},
      {"measurement": "optical density at 620 nm", "setting": "[7]; blank 0.053, untreated 0.941", "result": 0.528},
      {"measurement": "efficacy (%)", "setting": "Microdochium majus K7482", "result": 96, "unit": "%"},
      {"measurement": "optical density at 620 nm", "setting": "Microdochium majus K7482; blank 0.050, untreated 0.228", "result": 0.057},
      {"measurement": "efficacy (%)", "setting": "[8]", "result": 90, "unit": "%"},
      {"measurement": "optical density at 620 nm", "setting": "[8]; blank 0.054, untreated 0.233", "result": 0.073},
      {"measurement": "efficacy (%)", "setting": "[9]", "result": 95, "unit": "%"},
      {"measurement": "optical density at 620 nm", "setting": "[9]; blank 0.046, untreated 0.378", "result": 0.062},
      {"measurement": "efficacy (%)", "setting": "Septoria glycines K5204", "result": 81, "unit": "%"},
      {"measurement": "optical density at 620 nm", "setting": "Septoria glycines K5204; blank 0.044, untreated 0.414", "result": 0.115},
      {"measurement": "efficacy (%)", "setting": "[10]", "result": 97, "unit": "%"},
      {"measurement": "optical density at 620 nm", "setting": "[10]; blank 0.044, untreated 0.304", "result": 0.051},
      {"measurement": "efficacy (%)", "setting": "[11]", "result": 86, "unit": "%"},
      {"measurement": "optical density at 620 nm", "setting": "[11]; blank 0.044, untreated 0.320", "result": 0.082},
      {"measurement": "efficacy (%)", "setting": "[12]", "result": 77, "unit": "%"},
      {"measurement": "optical density at 620 nm", "setting": "[12]; blank 0.055, untreated 0.235", "result": 0.096},
      {"measurement": "efficacy (%)", "setting": "[13]", "result": 90, "unit": "%"},
      {"measurement": "optical density at 620 nm", "setting": "[13]; blank 0.046, untreated 0.508", "result": 0.094}
    ]}
  ]
}
